± gives the expanded uncertainty stated by the source.
Experiments:
[1] = 298.15 K, 101.33 kPa, Liquid; for viscosity: Capillary tube (Ostwald / Ubbelohde) method; for mass density: Vibrating tube method
[2] = refractive index (Na D-line) (dimensionless); conditions: 298.15 K; 101.33 kPa; Liquid; Standard Abbe refractometry
[3] = xn = mol fraction of the nth substance listed; conditions: 298.15 K, 101.3 kPa, Liquid; for viscosity: Capillary tube (Ostwald / Ubbelohde) method
[4] = refractive index (Na D-line) (dimensionless); xn = mol fraction of the nth substance listed; conditions: 298.15 K, 101.3 kPa, Liquid, Standard Abbe refractometry

CCCCCCCCn1cc[n+](C)c1.O=S(=O)([N-]S(=O)(=O)C(F)(F)F)C(F)(F)F
Conditions	mass density [kg/m3]	refractive index	viscosity [mPa·s]
[1]	1320.59 ± 0.5	–	92.51 ± 1.4
[2]	–	1.43298 ± 0.00037	–

CCCCCCCCn1cc[n+](C)c1.O=S(=O)([N-]S(=O)(=O)C(F)(F)F)C(F)(F)F + CCO
Conditions	mass density, [3] [kg/m3]	refractive index, [4]	viscosity, [3] [mPa·s]
x2 = 0.0959	1311.29 ± 1.5	1.43164 ± 0.00036	71.28 ± 0.88
x2 = 0.1162	1309.17 ± 1.5	1.43133 ± 0.00036	67.63 ± 0.81
x2 = 0.1935	1300.29 ± 1.4	1.43016 ± 0.00035	55.53 ± 0.61
x2 = 0.2269	1296.02 ± 1.4	1.42965 ± 0.00035	51.54 ± 0.56
x2 = 0.3304	1280.78 ± 1.3	1.42766 ± 0.00034	39.23 ± 0.44
x2 = 0.4164	1265.19 ± 1.2	1.42549 ± 0.00034	29.89 ± 0.34
x2 = 0.5412	1235.17 ± 1.1	1.42143 ± 0.00033	19.92 ± 0.22
x2 = 0.6012	1216.21 ± 1	1.41886 ± 0.00032	15.86 ± 0.18
x2 = 0.7033	1173.46 ± 0.84	1.41319 ± 0.00032	10.25 ± 0.11
x2 = 0.8067	1106.85 ± 0.62	1.40447 ± 0.00032	5.83 ± 0.065
x2 = 0.8967	1010.5 ± 0.31	1.39142 ± 0.00031	3.079 ± 0.035

CCCCCCCCn1cc[n+](C)c1.O=S(=O)([N-]S(=O)(=O)C(F)(F)F)C(F)(F)F + CCOC(C)=O
Conditions	mass density, [3] [kg/m3]	refractive index, [4]	viscosity, [3] [mPa·s]
x2 = 0.0493	1314.93 ± 1.6	1.43216 ± 0.00037	78.89 ± 1.1
x2 = 0.1112	1307.34 ± 1.5	1.43115 ± 0.00036	65.93 ± 0.78
x2 = 0.1546	1301.55 ± 1.4	1.43042 ± 0.00036	58.25 ± 0.66
x2 = 0.2125	1293.1 ± 1.4	1.4293 ± 0.00035	48.82 ± 0.56
x2 = 0.3102	1276.6 ± 1.3	1.42726 ± 0.00035	34.78 ± 0.4
x2 = 0.404	1257.53 ± 1.2	1.42453 ± 0.00034	24.15 ± 0.27
x2 = 0.4779	1239.88 ± 1.1	1.42219 ± 0.00033	17.54 ± 0.2
x2 = 0.5967	1203.86 ± 0.97	1.41721 ± 0.00033	9.795 ± 0.11
x2 = 0.7035	1160.22 ± 0.81	1.41123 ± 0.00032	5.384 ± 0.062
x2 = 0.8233	1089.62 ± 0.57	1.40097 ± 0.00032	2.284 ± 0.026
x2 = 0.9016	1022.64 ± 0.35	1.391 ± 0.00032	1.233 ± 0.014

CCO [ethanol]
Conditions	refractive index	viscosity [mPa·s]
[1]	–	1.054 ± 0.012
[2]	1.35928 ± 0.00031	–

CCOC(C)=O [ethyl acetate]
Conditions	mass density [kg/m3]	refractive index	viscosity [mPa·s]
[1]	894.4 ± 0.1	–	0.4256 ± 0.0051
[2]	–	1.36983 ± 0.00031	–

CCOC(C)=O [ethyl acetate] + CCO
Conditions	mass density, [3] [kg/m3]	refractive index, [4]	viscosity, [3] [mPa·s]
x1 = 0.0941	800.65 ± 0.87	1.36064 ± 0.00031	0.855 ± 0.01
x1 = 0.1919	815.09 ± 0.83	1.36193 ± 0.00031	0.692 ± 0.008
x1 = 0.2836	827.27 ± 0.79	1.36309 ± 0.00031	0.619 ± 0.007
x1 = 0.4044	841.69 ± 0.75	1.36447 ± 0.00031	0.541 ± 0.006
x1 = 0.5014	852.05 ± 0.72	1.36548 ± 0.00031	0.505 ± 0.006
x1 = 0.6085	862.53 ± 0.68	1.36649 ± 0.00031	0.467 ± 0.006
x1 = 0.6949	870.3 ± 0.66	1.36724 ± 0.00031	0.444 ± 0.005
x1 = 0.7929	878.51 ± 0.63	1.36811 ± 0.00031	0.436 ± 0.005
x1 = 0.8957	886.6 ± 0.61	1.36895 ± 0.00031	0.424 ± 0.005
